Measurements reported in US20260345834A1, “NIR-LIGHT ACTIVATABLE NANOGEL DELIVERY SYSTEM” (THE BOARD OF TRUSTEES OF THE UNIVERSITY OF ILLINOIS, priority 2022, published 2026).

What was measured:
Format in all cases: physicochemical
[1] = Passive release of encapsulated cargo via dialysis; conditions: drug-loaded NIR-nanogel, dialysis against MilliQ/DI water; for passive leeching of cargo (concentration loss): three hours
Experimental: FIG. 10A-D. Passive release of encapsulated a) cisplatin b) gefitinib c) GW9662 and d) Paclitaxel via dialysis for 0, 1, 2, and 4 hours against DI water.
After extensive screening, we obtained an optimized procedure that yielded reliable encapsulation results for each drug. We discovered that slow addition (versus bolus addition) of the drug to NIR-nanogel samples was essential to maintain a homogeneous suspension of the particles in solution. Further, the inclusion of at least 10% ethanol as a solubilizing co-solvent was necessary for drug encapsulation. […] After removal of non-encapsulated drug, we established a method to assess passive leeching of the contents by dialyzing the drug-loaded sample against MilliQ water. Small aliquots were removed at various time points and compared to the initial cargo concentration. […] In general, the extent of passive cargo loss was determined by placing a photobleached sample of each drug-loaded NIR-nanogel in 3 kDa MWCO dialysis tubing for dialysis against DI water. Aliquots were taken to determine the absorbance at various time points for comparison against the corresponding calibration curve.

[2] = Absorption spectrum and extinction coefficient in DMSO
Text: With the various components in hand, we turned our attention to testing whether the amide moiety would impact the photophysical properties of the cyanine core. First, we analyzed the absorption spectrum and measured the extinction coefficient of Cy780-Acryl. Compared to the Cy7-Cl reference in DMSO, the λmax (831 nm cf. 793 nm) and extinction coefficients (1.11×10^5 M^−1cm^−1 cf. 1.23×10^5 M^−1cm^−1) were similar. Next, we evaluated the photostability of the crosslinker. When Cy780-Acryl (as well as Cy780-Acetamido) was irradiated with a LED light source at 780 nm (300 mW power output, 47.3 μW/mm^2 maximum irradiance), we found complete degradation of the molecule after only 25 minutes based on the disappearance of the NIR absorbance band (FIG. 2). […] Of note, when dissolved oxygen was removed prior to the initiation of photobleaching, we found the change in absorbance to be minimal, supporting the proposed dioxetane mechanism (FIG. 4). Indeed, the anticipated carbonyl fragmentation products were detected via LC-MS when samples were irradiated in the presence of oxygen (FIG. 5).
^1H and ^13C NMR spectra were acquired on a Varian 500 or Carver B500 spectrometer. […] Spectra were visualized and analyzed using MestReNova (version 14.2) and referenced to trace non-deuterated solvent. […]

[3] = Photobleaching under 780 nm LED irradiation (NIR absorbance)
Experimental: FIG. 2. […] Time points=0, 15, 30 mins. Samples were irradiated with a LED light source at 780 m, (300 mW power output, 47.3 μW/mm^2 maximum irradiance).
FIG. 3. Absorption measurements of a 25 μM solution of a) Cy7-Cl and b) Cy780-Acryl when irradiated with a 780 nm LED light. Time points=0, 15, 30 mins. Samples were irradiated with a LED light source at 780 m, (300 mW power output, 47.3 μW/mm^2 maximum irradiance).
FIG. 4. Absorption measurements of a NIR-nanogel sample without dissolved oxygen when irradiated with a 780 nm LED light. Time points=0, 15, 30, 45, 60, 75, 90 mins. Samples were irradiated with a LED light source at 780 m, (300 mW power output, 47.3 μW/mm^2 maximum irradiance).
Time points=0, 15, 30, 45, 60, 90, 120, 150, 180 mins. b) Diameter of NIR-nanogels with and without NIR light irradiation measured via dynamic light scattering (left) and scanning electron microscopy (right). […] (n=300 for SEM) Scale bar represents 500 nm. e) Normalized absorbance of nanogels exposed to biologically relevant reactive species. f) Normalized absorbance of nanogels suspended in Britton-Robinson buffer (pH 4.2 to 12.0). […]
With the various components in hand, we turned our attention to testing whether the amide moiety would impact the photophysical properties of the cyanine core. First, we analyzed the absorption spectrum and measured the extinction coefficient of Cy780-Acryl. […]

Compound | passive release of cargo (result in words) [1] | passive leeching of cargo (concentration loss) [1] | other results
N.N.[Cl][Pt][Cl] [cisplatin] | – | ~ 50% | –
C=CC(=O)Nc1ccc2c(c1)C(C)(C)C(/C=C/C1=C(Cl)C(=C/C=C3/N(CC)c4ccc(NC(=O)C=C)cc4C3(C)C)/CCC1)=[N+]2CC [Cy780-Acryl] | – | – | extinction coefficient [2]: 111000 M⁻¹ cm⁻¹; λmax [2]: 831 nm; change in absorbance on irradiation without dissolved oxygen ([3]; 780 nm LED, dissolved oxygen removed prior to photobleaching): minimal; time to complete degradation (disappearance of the NIR absorbance band) ([3]; LED 780 nm, 300 mW power output, 47.3 μW/mm^2 maximum irradiance): 25 min
COc1cc2ncnc(Nc3ccc(F)c(Cl)c3)c2cc1OCCCN1CCOCC1 [gefitinib] | – | ~ 6% | –

The next lines start with results.

passive release of cargo (result in words) [1] | Compound | passive leeching of cargo (concentration loss) [1] | other results
no passive release | O=C(Nc1ccccc1)c1cc([N+](=O)[O-])ccc1Cl [GW9662] | – | –
minimal leeching | CC(=O)O[C@H]1C(=O)[C@@]2(C)[C@H]([C@H](OC(=O)c3ccccc3)[C@]3(O)C[C@H](OC(=O)[C@H](O)[C@@H](NC(=O)c4ccccc4)c4ccccc4)C(C)=C1C3(C)C)[C@]1(OC(C)=O)CO[C@@H]1C[C@@H]2O [paclitaxel] | – | –
